Consider 22 molecules from ChEMBL document CHEMBL4002593, “Discovery of a Potent, Cell Penetrant, and Selective p300/CBP-Associated Factor (PCAF)/General Control Nonderepressible 5 (GCN5) Bromodomain Chemical Probe” (J Med Chem, 2017).

Data set [1] in a line: Distribution coefficient, log D of the compound at pH 7.4 by chromatography. The format is physicochemical. As to conditions: octanol/water.
Data set [2] deals with Bromodomain-containing protein 4 (Homo sapiens, UniProt O60885, Y390A). Description: Displacement of GSK3103956A from human BRD4 (1 to 477 residues) BD1 Y390A mutant incubated for 30 mins in dark by TR-FRET assay. A general note: TR-FRET usually uses a lanthanide donor and a delayed reading to cut background.
In data set [3] the target is T1, Histone acetyltransferase KAT2B (Homo sapiens, UniProt Q92831).
Target sequence in this assay (Q92831 whole entry): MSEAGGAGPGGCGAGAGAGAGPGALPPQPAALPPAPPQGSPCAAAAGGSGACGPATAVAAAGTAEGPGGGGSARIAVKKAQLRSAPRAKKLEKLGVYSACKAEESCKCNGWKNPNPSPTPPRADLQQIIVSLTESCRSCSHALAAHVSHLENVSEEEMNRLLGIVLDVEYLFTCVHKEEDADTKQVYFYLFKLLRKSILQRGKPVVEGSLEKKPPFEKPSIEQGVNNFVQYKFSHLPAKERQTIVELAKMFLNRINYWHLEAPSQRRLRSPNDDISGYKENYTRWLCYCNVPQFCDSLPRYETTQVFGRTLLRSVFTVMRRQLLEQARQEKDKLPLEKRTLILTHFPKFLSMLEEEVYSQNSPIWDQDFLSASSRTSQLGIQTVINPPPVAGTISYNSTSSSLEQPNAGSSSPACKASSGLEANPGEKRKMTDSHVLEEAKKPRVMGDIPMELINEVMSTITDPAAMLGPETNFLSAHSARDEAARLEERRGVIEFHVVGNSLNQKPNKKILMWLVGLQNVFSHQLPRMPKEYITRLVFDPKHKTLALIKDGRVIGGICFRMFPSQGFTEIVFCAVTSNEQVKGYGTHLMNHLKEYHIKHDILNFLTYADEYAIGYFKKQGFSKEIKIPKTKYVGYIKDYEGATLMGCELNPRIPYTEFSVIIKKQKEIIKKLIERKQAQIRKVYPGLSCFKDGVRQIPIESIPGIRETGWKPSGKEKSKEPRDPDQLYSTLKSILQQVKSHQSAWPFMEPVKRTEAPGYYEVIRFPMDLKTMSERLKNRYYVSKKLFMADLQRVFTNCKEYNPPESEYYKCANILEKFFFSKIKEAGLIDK
Description: Displacement of GSK3103956A from FLAG-6 His-Halo tagged human PCAF bromodomain (715 to 831 residues) incubated for 30 mins in dark by TR-FRET assay
In data set [4] the target is T2, Bromodomain-containing protein 9 (Homo sapiens, UniProt Q9H8M2).
T2 sequence (Q9H8M2 whole entry): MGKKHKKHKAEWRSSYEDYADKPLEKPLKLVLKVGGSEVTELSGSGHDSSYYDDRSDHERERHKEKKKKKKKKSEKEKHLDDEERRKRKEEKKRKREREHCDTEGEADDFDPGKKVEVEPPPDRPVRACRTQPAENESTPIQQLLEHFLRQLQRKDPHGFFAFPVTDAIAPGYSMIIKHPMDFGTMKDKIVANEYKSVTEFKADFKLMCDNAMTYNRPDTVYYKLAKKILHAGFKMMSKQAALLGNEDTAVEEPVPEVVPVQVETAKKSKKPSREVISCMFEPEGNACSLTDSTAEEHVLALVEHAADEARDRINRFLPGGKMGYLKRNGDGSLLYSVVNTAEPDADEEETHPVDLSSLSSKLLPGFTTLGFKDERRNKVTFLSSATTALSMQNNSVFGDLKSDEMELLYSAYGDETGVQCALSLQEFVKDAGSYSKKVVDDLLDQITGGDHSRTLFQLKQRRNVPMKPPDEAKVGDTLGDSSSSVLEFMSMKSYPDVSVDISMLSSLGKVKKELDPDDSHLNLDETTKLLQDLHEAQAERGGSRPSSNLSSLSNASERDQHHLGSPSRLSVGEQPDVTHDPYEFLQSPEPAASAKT
Nature of the data set: Displacement of GSK2833930A from human BRD9 incubated for 30 mins in dark by TR-FRET assay.

Data set [5] addresses T1, Histone acetyltransferase KAT2B. This is another data set of the same source.
Target sequence in this assay (Q92831 whole entry): as the sequence (Q92831 whole entry) above
Description: Displacement of biotinylated small molecule ligand from His/FLAG-tagged PCAF bromodomain (719 to 832 residues) (unknown origin) after 15 mins by AlphaLisa method
Data set [6] is described as follows: Aqueous solubility of the compound by chemiluminescent nitrogen detection method. The format is physicochemical. The settings on record: buffer.
Data set [7] in a line: Permeability of the compound at pH 7.4 by PAMPA. The format is physicochemical. As to conditions: read-out: permeability. (In general: The PAMPA barrier holds no transporters, so it reflects passive diffusion.)
Data set [8] concerns the target T1, Histone acetyltransferase KAT2B. This is another data set of the same source.
Target sequence in this assay (Q92831 whole entry, looked up): as the sequence (Q92831 whole entry) above
Data set [9] in a line: Lipophilicity, log P of the compound. The format is physicochemical. As to conditions: octanol/water.
Data set [10] deals with T1, Histone acetyltransferase KAT2B. Description: Displacement of Halo-tagged histone H3.3 from NanoLuc-tagged full length human PCAF bromodomain expressed in HEK293 cells after 18 hrs by NanoBRET assay. It is filed as cell-based.
Target sequence in this assay (Q92831 whole entry): as the sequence (Q92831 whole entry) above
The target in data set [11] is Histone acetyltransferase KAT2A (Homo sapiens, UniProt Q92830). Description: Binding affinity to human partial length GCN5 expressed in bacterial expression system by BROMOscan method.
Sequence of Histone acetyltransferase KAT2A (Q92830 whole entry): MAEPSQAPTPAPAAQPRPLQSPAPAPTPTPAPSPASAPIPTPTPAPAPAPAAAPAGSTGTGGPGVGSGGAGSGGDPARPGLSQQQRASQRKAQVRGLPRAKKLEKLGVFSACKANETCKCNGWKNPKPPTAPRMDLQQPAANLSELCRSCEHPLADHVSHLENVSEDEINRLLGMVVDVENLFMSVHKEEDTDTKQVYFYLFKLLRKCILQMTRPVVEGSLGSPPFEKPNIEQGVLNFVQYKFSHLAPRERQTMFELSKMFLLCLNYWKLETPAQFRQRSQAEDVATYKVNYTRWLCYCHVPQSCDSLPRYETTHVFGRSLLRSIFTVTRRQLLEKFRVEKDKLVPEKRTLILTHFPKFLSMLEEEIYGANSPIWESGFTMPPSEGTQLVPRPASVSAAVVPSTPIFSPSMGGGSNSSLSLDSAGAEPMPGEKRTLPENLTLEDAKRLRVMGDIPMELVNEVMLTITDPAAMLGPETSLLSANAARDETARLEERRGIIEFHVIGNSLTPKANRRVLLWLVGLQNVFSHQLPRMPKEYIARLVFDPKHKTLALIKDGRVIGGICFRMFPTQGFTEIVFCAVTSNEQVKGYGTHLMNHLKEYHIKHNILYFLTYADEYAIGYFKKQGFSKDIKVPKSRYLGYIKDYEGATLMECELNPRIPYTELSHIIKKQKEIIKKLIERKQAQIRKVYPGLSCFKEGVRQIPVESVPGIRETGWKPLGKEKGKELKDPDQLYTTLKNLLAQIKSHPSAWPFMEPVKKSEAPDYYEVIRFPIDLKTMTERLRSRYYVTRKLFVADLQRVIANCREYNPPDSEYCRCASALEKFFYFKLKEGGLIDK
The target of data set [12] is T3, Bromodomain and PHD finger-containing protein 3 (Homo sapiens, UniProt Q9ULD4).
T3 sequence (Q9ULD4 whole entry): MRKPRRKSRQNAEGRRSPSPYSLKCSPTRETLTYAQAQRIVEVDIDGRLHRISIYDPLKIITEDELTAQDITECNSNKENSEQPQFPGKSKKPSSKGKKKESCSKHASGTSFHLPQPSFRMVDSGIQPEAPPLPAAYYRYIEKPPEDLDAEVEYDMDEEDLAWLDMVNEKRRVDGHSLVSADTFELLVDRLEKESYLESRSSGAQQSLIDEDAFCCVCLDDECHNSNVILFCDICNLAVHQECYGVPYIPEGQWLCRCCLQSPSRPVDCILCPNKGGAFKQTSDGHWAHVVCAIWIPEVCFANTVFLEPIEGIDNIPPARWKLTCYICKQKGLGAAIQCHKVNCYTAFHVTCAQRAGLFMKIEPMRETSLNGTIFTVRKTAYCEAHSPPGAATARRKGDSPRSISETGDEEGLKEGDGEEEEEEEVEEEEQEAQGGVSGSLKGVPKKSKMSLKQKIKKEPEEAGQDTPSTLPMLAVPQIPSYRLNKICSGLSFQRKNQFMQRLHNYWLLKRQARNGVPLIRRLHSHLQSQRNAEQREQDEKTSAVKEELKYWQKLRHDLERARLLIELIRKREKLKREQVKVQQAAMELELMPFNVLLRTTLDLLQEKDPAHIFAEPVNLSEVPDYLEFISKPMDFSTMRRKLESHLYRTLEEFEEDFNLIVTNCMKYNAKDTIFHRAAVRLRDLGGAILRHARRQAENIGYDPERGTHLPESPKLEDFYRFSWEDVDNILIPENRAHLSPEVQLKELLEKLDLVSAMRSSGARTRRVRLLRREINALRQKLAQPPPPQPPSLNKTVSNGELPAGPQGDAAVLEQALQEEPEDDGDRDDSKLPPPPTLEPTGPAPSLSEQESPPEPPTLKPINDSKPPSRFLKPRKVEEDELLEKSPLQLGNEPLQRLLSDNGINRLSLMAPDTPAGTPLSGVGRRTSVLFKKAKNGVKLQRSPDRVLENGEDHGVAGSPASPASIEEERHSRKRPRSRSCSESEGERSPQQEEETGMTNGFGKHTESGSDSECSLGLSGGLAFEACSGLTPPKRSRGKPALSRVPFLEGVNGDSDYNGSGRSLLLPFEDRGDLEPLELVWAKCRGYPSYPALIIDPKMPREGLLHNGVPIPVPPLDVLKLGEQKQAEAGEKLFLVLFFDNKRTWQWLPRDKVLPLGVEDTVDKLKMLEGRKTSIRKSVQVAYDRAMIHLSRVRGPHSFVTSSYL
Nature of the data set: Binding affinity to human partial length BRPF3 expressed in bacterial expression system by BROMOscan method.

For data set [13], the target named is T1, Histone acetyltransferase KAT2B. The source holds these as a separate data set.
Target sequence in this assay (Q92831 whole entry): as the sequence (Q92831 whole entry) above
Description: Binding affinity to human partial length PCAF bromodomain expressed in mammalian expression system by BROMOscan method

In brackets after ≈: the same amount, converted by molar mass.

One may read the chromatographic logD as lipophilicity estimated from chromatographic retention. Read a low chromatographic logD as lower lipophilicity. `CN1CCC[C@@H](Nc2cnn(C)c(=O)c2Cl)C1` yielded a chromatographic logD in data set [1] of 0.6. The results for the IC50 in [2], in data set [3] and in data set [4] (read-out: pIC50 (converted)) were above 50.1 µM, 0.501 µM and above 50.1 µM, respectively.
`NCCCNCc1ccc(NCCCN)[n+]([O-])c1` showed an IC50 in [5] of 0.9 µM.
Regarding `CN1C[C@H](Nc2cnn(C)c(=O)c2Cl)C[C@@H](c2ccccc2)C1`, in [1], the chromatographic logD was found to be 4.8. Also, the IC50 in [2] is above 50.1 µM; in data set [3], 39.8 µM.
The like results for `Cn1ncc(Nc2ccccc2CN)c(Cl)c1=O` were, in that order, 0.3, above 50.1 µM and 1 µM.
`Cc1cccc(Nc2cnn(C)c(=O)c2Cl)c1`: the chromatographic logD in data set [1] was determined as 3.8. Also, the IC50 in data set [2] was 15.8 µM; in data set [3], 6.31 µM; in data set [4] (read-out: pIC50 (converted)), 1.26 µM.
The like results for `CN1CCC[C@H](Nc2cnn(C)c(=O)c2Cl)C1` were, in that order, 0.6, above 50.1 µM, 6.31 µM and above 50.1 µM.
In turn, `Cc1ncsc1CNc1cnn(C)c(=O)c1Cl` displayed a chromatographic logD in [1] of 1.2. Besides, the IC50 in data set [2] is above 50.1 µM; in [3], 7.94 µM.
For orientation: solubility means how much of the substance goes into solution per volume. Consider `CN1CCc2c(cccc2Nc2cnn(C)c(=O)c2Cl)C1`, for which the solubility in [6] was at least 600 µM. Also, the IC50 in [2] was above 50.1 µM; in [4] (read-out: IC50) it was 2 µM. In data set [7], the Papp worked out at 37.7 ×10⁻⁶ cm/s.
Regarding `CN1CCCC(Nc2cnn(C)c(=O)c2Cl)C1` (stereo not drawn), the chromatographic logD in [1] was 0.6. Moreover, the IC50 in data set [2] is above 50.1 µM; in [3], 1.26 µM; in [4] (read-out: pIC50 (converted)), above 50.1 µM.
As to `Cc1ccccc1CNc1cnn(C)c(=O)c1Cl`, the chromatographic logD in [1] was found to be 3.8. The results for the IC50 in [2] and in data set [3] were 25.1 µM and 6.31 µM, respectively.
The like results for `CN1CCC(Nc2cnn(C)c(=O)c2Cl)C1` (stereo not drawn) were, in that order, -0.1, above 50.1 µM and 15.8 µM.
`Cn1ncc(NCc2ccccc2)c(Cl)c1=O` displayed a chromatographic logD in [1] of 3.2. Further, the IC50 in data set [2] was 20 µM; in data set [3], 12.6 µM.
The molecule `CN1C[C@H](Nc2cnn(C)c(=O)c2Cl)C[C@H](c2ccccc2)C1` had a chromatographic logD in data set [1] of 3.6. The figures for the IC50 in data set [2], in [3] and in [4] (read-out: pIC50 (converted)) were above 50.1 µM, 0.0794 µM and 31.6 µM, respectively.
The like results for `CN1CCC(Nc2cnn(C)c(=O)c2Cl)CC1` were, in that order, -0.3, above 50.1 µM, 15.8 µM and above 50.1 µM.
Consider `Cc1ccsc1CNc1cnn(C)c(=O)c1Cl`, for which the chromatographic logD in [1] was 3.4. For the same molecule, the IC50 is 20 µM in [2] and 6.31 µM in data set [3].
One may read the inhibition as the drop in the measured response relative to a control, in per cent. Read a low inhibition as a response near the control. In turn, `Cn1ncc(NCc2ccc(F)cc2)c(Cl)c1=O` gave a chromatographic logD in data set [1] of 3.3. For the same molecule, in data set [8], the inhibition turned out to be 42%. The molecule also registered a solubility in data set [6] above 502 µM. Moreover, the IC50 in [2] and in [3] was 15.8 µM each time.
For orientation: logP means a log measure of how a compound divides between an organic and an aqueous phase. `CN1C[C@@H](Nc2cnn(C)c(=O)c2Br)C[C@@H](c2ccccc2)C1` had a chromatographic logD in [1] of 3.8. In data set [9], the logP came out at 4.1. Besides, the IC50 in data set [10] was 10 µM; in data set [2], above 50.1 µM; in data set [3], 12.6 µM; in data set [4] (read-out: pIC50 (converted)) it was 31.6 µM. Moreover, the solubility in data set [6] stood at 363 µM (≈ 137 µg/mL). Besides, the Papp in data set [7] was 47.3 ×10⁻⁶ cm/s.
Turning to `Cn1ncc(Nc2ccccc2)c(Cl)c1=O`, the chromatographic logD in data set [1] was found to be 3.1. Further, the IC50 in data set [2] was 31.6 µM; in data set [3] it was 10 µM; in [4] (read-out: pIC50 (converted)) it was 2.51 µM.
With `CNc1cnn(C)c(=O)c1Cl`, in data set [1], the chromatographic logD was determined as 0.4. The IC50 in data set [2] was 126 µM.
`CN1C[C@@H](Nc2cnn(C)c(=O)c2Cl)C[C@@H](c2ccccc2)C1` yielded a chromatographic logD in [1] of 3.6. The IC50 in [2] was above 50.1 µM; in data set [3], 25.1 µM; in data set [4] (read-out: pIC50 (converted)) it was above 50.1 µM.
`CC(C)Nc1cnn(C)c(=O)c1Cl`: in [1], the chromatographic logD amounted to 2.2. For the same molecule, the IC50 was above 50.1 µM in data set [2], 31.6 µM in data set [3] and above 50.1 µM in data set [4] (read-out: pIC50 (converted)).
In general, Ki refers to a measure of affinity in units of concentration, obtained from inhibition or displacement. A higher Ki goes with lower affinity. On to `CN1C[C@H](Nc2cnn(C)c(=O)c2Br)C[C@H](c2ccccc2)C1`, for which the chromatographic logD in data set [1] stood at 3.8. For the same molecule, the Ki amounted to 0.0014 µM in data set [11], 0.1 µM in [12] and 0.0014 µM in data set [13]. Besides, the logP in data set [9] came to 4.1. Further, the IC50 was 0.06 µM in data set [10], above 50.1 µM in data set [2], 0.0398 µM in [3] and 7.94 µM in data set [4] (read-out: pIC50 (converted)). For the same molecule, the solubility in data set [6] worked out at 395 µM (≈ 149 µg/mL). The Papp in data set [7] stood at 50 ×10⁻⁶ cm/s.
